According to US10604555B2, “GIP derivatives and uses thereof” (priority 2018, dated 2020):
Marks after values point to notes of the source that are not given here.

Assays:
[1] = test system: diet-induced obese (DIO) mice; experiment: Sub-chronic in vivo study in obese mice: IPGTT (intraperitoneal glucose tolerance test); set-up: species or system C57BL/6J mice; conditions: for effect on glucose tolerance (in words): DIO mice, Tables 6-8, compound 47 2 nmol/kg, GIP derivatives 30 nmol/kg; for iAUC, IPGTT (mM*min) Day 15: i.p. glucose 2 g/kg, 4 h fasted, baseline subtracted AUC, mean ± SEM
Text: (§1) The purpose of this example is to assess the in vivo effect of the GIP derivatives of the present invention alone and in combination with a GLP-1 receptor agonist on food intake, body weight, and glucose tolerance in diet-induced obese (DIO) mice. The GLP-1 receptor agonist used for this example was a semaglutide-like molecule that has the same pharmacological properties as semaglutide, but a slightly different structure. The compound may be synthesised using methods known in the art, e.g. as described by methods of present Example 1 or as described in WO 2006/097537, example 4.
(§2) The animals were treated once daily with the GLP-1 receptor agonist (compound no. 47) and/or a GIP derivative of the present invention exemplified by compound no.'s 5, 25 and 31, to assess weight loss, efficacy and glucose tolerance. Animals and Diet
(§3) All animal protocols were approved by an Institutional Animal Care and Use Committee and Ethical Review Committee of Novo Nordisk. Animals were housed according to Novo Nordisk rodent housing standards, and were given ad libitum access to food and water under controlled lighting (12 h:12 h light/dark cycle; lights off 18:00-06:00), temperature (23±2° C.) and relative humidity (50±20%) conditions. DIO male C57BL/6J mice maintained on a high fat diet (45% kcal fat, RD12451, Research Diets, New Brunswick, N.J., USA) for 22 weeks were obtained from Charles River (France). Upon arrival, the mice were single-housed (one mouse per cage) and allowed to acclimate to their new environment for two weeks prior to the start of treatment.
(§4) Prior to initiation of the study, animals were single-housed and acclimated to handling for 7 days. The DIO mice were distributed into groups (n=8/group) such that statistical variations in the mean and standard deviations of fat mass and body weight were minimized between groups. Animals were dosed once daily, subcutaneously with either vehicle or test compound.
(§5) All compounds in the study were formulated in the following buffer: 50 mM phosphate; 70 mM sodium chloride; 0.05% polysorbate 80, pH 7.4. Dosing solutions were formulated in glass vials and stored at 2-8° C. Dosing solutions were brought to room temperature before dosing and returned to 2-8° C. after dosing.
On the day of the glucose tolerance test (day 15), animals were fasted for 4 h. Food was removed and animals were transferred to fresh cages. Animals had access to water but not to food. Tail blood glucose levels were measured and mice were injected (t=0) with an intra-peritoneal (i.p.) glucose load of 2 g/kg (200 mg/ml glucose solution, dose volume 10 ml/kg). Tail blood glucose levels were measured at times 0, 15, 30, 60, 90, 120 minutes following the i.p. glucose load. Stratification of the animals during the IPGTT was such that for example two mice from group 1 are dosed followed by two mice from group 2, 3, 4, before the next two mice from group 1, 2, 3 etc. were handled. This was to allow for equal distribution of “time of day” throughout all groups.

[2] = test system: diet-induced obese (DIO) mice; experiment: Sub-chronic in vivo study in obese mice: food intake and body weight; set-up: species or system C57BL/6J mice; conditions: for effect on body weight (in words) / effect on food intake (in words) / Cumulative food intake (kcals) Day 14: DIO mice; for effect on body weight (in words) / effect on food intake (in words): Tables 6-8, compound 47 2 nmol/kg, GIP derivatives 30 nmol/kg; for Cumulative food intake (kcals) Day 14 / Absolute BW (grams) Day 14 / Change in BW (%) Day 14: once daily s.c.; for Cumulative food intake (kcals) Day 14 / Absolute BW (grams) Day 0 / Absolute BW (grams) Day 14 / Change in BW (%) Day 14: mean ± SEM; for Absolute BW (grams) Day 0: Day 0 (before treatment)
Text: as §1, §2, §3, §4, §5
Body weight (BW) and food intake were measured immediately prior to dosing each day. The average starting body weight of the mice prior to start of treatment was 45.2±0.2 grams.

[3] = Study 1, 47 2 nmol/kg and/or 5 30 nmol/kg
[4] = Study 2, 47 2 nmol/kg and/or 25 30 nmol/kg
[5] = Study 3, 47 2 nmol/kg, 31 30 nmol/kg
[6] = Study 2, compound no. 47 2 nmol/kg and/or compound no. 25 30 nmol/kg

Substance | effect on glucose tolerance (in words) [1] | iAUC, IPGTT (mM*min) Day 15 [1, 3] | iAUC, IPGTT (mM*min) Day 15 [1, 4] | iAUC, IPGTT (mM*min) Day 15 [1, 5] | effect on body weight (in words) [2] | effect on food intake (in words) [2] | Cumulative food intake (kcals) Day 14 ([2]; Study 1, compound no. 47 2 nmol/kg and/or compound no. 5 30 nmol/kg) | Absolute BW (grams) Day 0 ([2]; Study 1) | Absolute BW (grams) Day 14 [2, 3] | Change in BW (%) Day 14 [2, 3] | Cumulative food intake (kcals) Day 14 [2, 6] | Absolute BW (grams) Day 0 ([2]; Study 2) | Absolute BW (grams) Day 14 [2, 4] | Change in BW (%) Day 14 [2, 4] | Cumulative food intake (kcals) Day 14 ([2]; Study 3, compound no. 47 2 nmol/kg and GIP compound no. 31 30 nmol/kg) | Absolute BW (grams) Day 0 ([2]; Study 3) | Absolute BW (grams) Day 14 [2, 5] | Change in BW (%) Day 14 [2, 5]
N^6,26-{18-[N-(17-carboxyheptadecanoyl)-D-γ-glutamyl]-10-oxo-3,6,12,15-tetraoxa-9,18-diazaoctadecanoyl}-[8-(2-amino-2-propanoic acid), 34-L-arginine]human glucagon-like peptide 1(7-37) [Compound 47] | improvement in glucose tolerance | 543 ± 94 ^a mM*min | 503 ± 55 ^b mM*min | 1441 ± 135 ^c mM*min | body weight loss | reduction in food intake | 146.3 ± 6.8 ^b kcals | 44.4 ± 1.0 ^a grams | 38.5 ± 1.2 ^bc grams | −13.2 ± 3.3 ^c % | 134.9 ± 4.3 ^b kcals | 40.2 ± 1.2 ^a grams | 34.8 ± 1.2 ^b grams | −13.6 ± 0.7 ^c % | 140.2 ± 6.7 ^b kcals | 45.2 ± 1.4 ^a grams | 40.0 ± 1.3 ^a grams | −11.2 ± 1.6 ^c %
N{1}-acetyl,N{Epsilon-24}-[(4S)-4-carboxy-4-[[(4S)-4-carboxy-4-[[(4S)-4-carboxy-4-[[4-[(19-carboxynonadecanoylamino)methyl]cyclohexanecarbonyl]amino]butanoyl]-amino]butanoyl]amino]butanoyl]-[D-Tyr1,Nle14,Arg18,Aib20,Lys24]-hGIP(1-31) [Compound 25] | improved glucose tolerance |  | 518 ± 36 ^b mM*min |  | minor body weight loss | minor effect on food intake |  |  |  |  | 170.2 ± 7.3 ^b kcals | 41.1 ± 1.0 ^a grams | 38.8 ± 1.0 ^a grams | −5.6 ± 0.8 ^b % |  |  |  | 
